Reference: US7754678B2, “Membrane penetrating peptides and uses thereof” (Aventis Pharmaceuticals Inc., priority 2000, dated 2010)

Assays:
[1] = molecular target: T1, 5HT2A receptor (Homo sapiens, UniProt P28223); assay: 5HT2A receptor activation, FLIPR calcium response; assay type: cell-based; details: 10 μM, 5HT2A receptor CHO stable cell line
T1 construct: expressed in transfected cells
Description: FIG. 4. Activation of serotonin 5HT2A receptor with hPER1-MPP fusion peptide. (A). hPER1-MPP and TAT-PTD peptides were synthesized alone or in fusion with either the first intracellular loop I1 ([…] (SEQ ID NO:10)), or the C-terminal Transmembrane 7 domain. TM7 ([…] (SEQ ID NO:11) derived from the 5HT2A receptor, genebank accession number, M86841). Receptor activities was assayed using standard FLIPR analysis and measuring endogenous and exogenous Ca^+2 levels. Peptide designations are as follows: T (TAT-PTD), P (hPER1-MPP), I1 (intracellular loop 1), T-I1 (TAT-PTD-I1), P-I1 (hPER1-MPP-I1), TM7 (C-terminal domain), TTM7 (TAT-PTD-TM7), PTM7 (hPER1-MPP-TM7), and S (Serotonin).
FIG. 4 (B). Dose response of PTM7 (closed circles) and TTM7 (closed diamonds) peptides. Serotonin (control, open triangle) was used at the maximum receptor stimulatory concentration of 10 μM.
One of the features of MPPs is their ability to cargo proteins and peptides into cells. We were successful in coupling hPER1-MPP to B-galactosidase and in delivering the fusion protein into cells in culture (data not shown), as has been described by Fawells et al., 1994 (Fawell, S., et al., Proc Natl Acad Sci USA. 91, 664-668 (1994)). However, to further extend the functional utility of MPPs, we tested hPER1-MPP in fusion with a physiologically relevant and biologically active peptide. […]

[2] = tested on: CHO cells; assay: Membrane penetration (peptide internalization) assay of biotinylated synthetic peptides; assay type: cell-based, Chinese Hamster; details: for intracellular distribution / staining of internalized peptide: Streptavidin ALEXA or anti-Flag mAb staining; for cells penetrated by peptide: peptide 10 μM added to cells in culture
Description: FIG. 2. Membrane penetration assay in CHO cells. N-terminal biotinylated synthetic peptides hPER1-PTD, Flag-hPER1-PTD, Flag-TAT-PTD (positive control), and Flag-Flag (negative control) were assayed for their ability to penetrate cellular membranes in living CHO cells in culture. The subcellular localization of internalized peptides was determined using a two color staining method, either Streptavidin-Alexa 594 (red) or anti-flag mAb. The third column is an overlay. Confocal microscopy was employed to further confirm intracellular and intranuclear localization. Single section of confocal imaging is shown.
FIG. 3. Alanine scanning of hPER1-PDTs. Biotinylated hPER1-NPDs were synthesized with a single amino acid residue substitution at the indicated position with an alanine and assayed for membrane penetration in CHO cells. Cells were incubated for 10 minutes at 37 C. at a peptide concentration of 10 μM followed by washing, fixation, permeablization, and then detected with labeled Streptavidin Alexa-594 (red, 2 μg/ml) for 15 minutes at the RT. Control peptide was from hPER1 N-terminal amino acids residues 486-500.
Peptides are synthesized by a commercial vendor (Bio Synthesis). For peptides internalization, cells are plated into two-well Lab-Tek coverslips (Nunc Inc.) at a density of 2×10^5 cells/well and cultured overnight. The peptides are dissolved in DMSO diluted to indicated concentration with PBS. The cell monolayers were incubated with the appropriate peptide/PBS solution at 1 μM standard concentration for 10 min at room temperature (RT) unless otherwise specified. For experiments at 4° C., the protocol was the same except that all incubations were performed at 4° C. until the end of the fixation procedure.
The peptides are assayed for their ability to penetrate cellular membranes. Intracellular localization is assayed by direct staining with labeled Streptavidin ALEXA reagents or by indirect staining with anti-Flag mAb followed by the addition of labeled secondary antibodies.

[3] = tested on: CHO cells; assay: β-galactosidase cargo delivery into cells (X-gal staining); assay type: cell-based, Chinese Hamster; details: chemically linked conjugates
Excerpt: (§1) FIG. 6. hPER-PTD cargo's β-Galactosidase into cells: At least one feature of HIV TAT transducing peptide is its ability to cargo proteins into cells and tissues. We therefore sought to determine if hPER1 transducing peptide could cargo beta galactosidase into cells. To perform this experiment, we followed a protocol by Frankel et al. 1989 (19):7397-401, whereby, we chemically linked hPER1-PTD or hPER-PTD R7A to full length β-galactosidase and assayed for the ability of these conjugates and beta-galactosidase protein alone to transduce into CHO cells.
as §1, with “At” for “FIG. 6. hPER-PTD cargo's β-Galactosidase into cells: At”, “al. PNAS” for “al.”, “R7A (with Ala replacing Arg^7)” for “R7A”

T1 sequence (P28223 whole entry): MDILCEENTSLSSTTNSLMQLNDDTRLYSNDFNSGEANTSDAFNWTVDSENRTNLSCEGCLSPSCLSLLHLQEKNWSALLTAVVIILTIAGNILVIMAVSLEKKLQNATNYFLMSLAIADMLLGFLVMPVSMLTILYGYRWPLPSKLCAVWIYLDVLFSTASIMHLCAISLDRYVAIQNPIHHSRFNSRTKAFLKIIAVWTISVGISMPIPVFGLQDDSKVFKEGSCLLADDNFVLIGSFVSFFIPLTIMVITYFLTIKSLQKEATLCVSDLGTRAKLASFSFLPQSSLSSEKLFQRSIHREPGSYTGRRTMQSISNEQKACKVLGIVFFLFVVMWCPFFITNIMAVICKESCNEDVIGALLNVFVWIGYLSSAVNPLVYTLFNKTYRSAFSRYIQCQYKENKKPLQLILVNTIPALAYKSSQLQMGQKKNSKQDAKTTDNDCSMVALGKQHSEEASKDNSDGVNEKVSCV

NCCc1c[nH]c2ccc(O)cc12 [serotonin]
5HT2A receptor signaling, calcium response [1]: receptor signaling is activated

GDPKKKRKV [SV40, reference compound]
membrane penetrating ability in words (relative to wild-type hPER1-MPP, TAT-PTD or negative control) [2]: not all NLSs are PTDs

GKHRHERGHHRDRRER [Cyclin L ania-6a]
membrane penetrating ability in words (relative to wild-type hPER1-MPP, TAT-PTD or negative control) [2]: not all NLSs are PTDs

GKKKRKLSNRESAKRSR [beta Zip TF]
membrane penetrating ability in words (relative to wild-type hPER1-MPP, TAT-PTD or negative control) [2]: not all NLSs are PTDs

GKKTGKNRKLKSKRVKPRD [hPER2]
membrane penetrating ability in words (relative to wild-type hPER1-MPP, TAT-PTD or negative control) [2]: not all NLSs are PTDs

GMDYKDDDDKGMDYKDDDDK [Flag, reference compound]
intracellular distribution / staining of internalized peptide [2]: only barely discernible background staining

GMDYKDDDDKGSRRHHCRSKAKRSHH [Flag-hPER1]
intracellular distribution / staining of internalized peptide [2]: diffusely distributed throughout the cytoplasm, but concentrated within subnuclear domains | cells penetrated by peptide [2]: 100%

GMDYKDDDDKGYGRKKKRRQRRR [Flag-TAT, reference compound]
intracellular distribution / staining of internalized peptide [2]: diffusely distributed throughout the cytoplasm, but concentrated within subnuclear domains | cells penetrated by peptide [2]: 100%

GRRERNKMAAAKCRNRRR [C-FOS]
membrane penetrating ability in words (relative to wild-type hPER1-MPP, TAT-PTD or negative control) [2]: not all NLSs are PTDs

KTYRSAFSRYIQYKENKKPLQLI [TM7, C-terminal Transmembrane 7 domain peptide of the 5HT2A receptor]
5HT2A receptor signaling, calcium response [1]: TM7 alone nor any of the other peptides were able to generate a calcium response

R R H H C R S K A K R S R (RRHHCRSKAKRSR) [hPER1-PTD13]
membrane penetrating ability in words (relative to wild-type hPER1-MPP, TAT-PTD or negative control) [2]: little overall effect on the positive membrane penetrating potential

S R R H H C A S K A K R S R H H (SRRHHCASKAKRSRHH) [R7A]
membrane penetrating ability in words (relative to wild-type hPER1-MPP, TAT-PTD or negative control) [2]: reduced the detectable cytological signal to that observed for the negative control peptides

SRRHHCRSKAKRSRHH [hPER1-MPP, N-terminally biotinylated peptide of hPER1 amino acids 830-845]
membrane penetrating ability in words (relative to wild-type hPER1-MPP, TAT-PTD or negative control) [2]: efficiencies similar to the TAT-PTD peptide | time of internalization [2]: ≤ 5 min | intracellular distribution / staining of internalized peptide [2]: diffusely distributed throughout the cytoplasm, but concentrated within subnuclear domains | cells penetrated by peptide [2]: 100%

β-galactosidase protein: full length β-galactosidase alone
delivery of β-galactosidase into cells (enzymatic activity, blue color after X-gal) [3]: no blue staining reactivity
